In patent US20100075965A1, “PI3 KINASE INHIBITORS AND METHODS OF THEIR USE” (Novartis AG, priority 2006, published 2010):
pEC50, pIC50: −log10 of the molar value. Where two headings read alike, the source gives them in different places.

Experiments:
A2780 cells = experiment: Viability assay in A2780 (Cell Titer Glo); type: cell-based, human; details: Homo sapiens, read-out: A2780 Cell prolif. EC50
Procedure, shortened: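 EC50 values come from Cell Titer Glo luminescence after 72 hrs of compound exposure at 37° C, run in duplicate. A2780 cells were plated at 1,000 per well in DMEM with 10% FBS and dosed with 3-fold serial dilutions.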

[1] = tested on: pSer473-Akt in A2780 cells; experiment: pSer473 Akt assay to monitor PI3K pathway in A2780 cells (MSD); type: cell-based; details: Homo sapiens
Protocol: In this method, an assay for measuring the PI3K-mediated pSer^473-Akt status after treatment with representative inhibitor compounds of the preferred embodiments is described.
A2780 cells were cultured in DMEM supplemented with 10% FBS, L-glutamine, sodium pyruvate, and antibiotics. Cells were plated in the same medium at a density of 15,000 cells per well into 96 well tissue culture plates, with outside wells vacant, and allowed to adhere overnight.
Test compounds supplied in DMSO were diluted further into DMSO at 500 times the desired final concentrations before dilution into culture media to 2 times the final concentrations. Equal volumes of 2× compounds in media were added to the cells in 96 well plates and incubated at 37° C. for one hour. The media and compounds were then removed, the plates chilled and cells lysed in a lysis buffer (150 mM NaCl, 20 mM Tris pH 7.5, 1 mM EDTA, 1 mM EGTA, 1% Triton X-100) supplemented with phosphatase and protease inhibitors. After thorough mixing, lysates were transferred to both pSer473Akt and total Akt assay plates from Meso Scale Discovery (MSD), and incubated overnight with shaking at 4° C. The plates were washed with 1×MSD wash buffer and the captured analytes detected with secondary antibodies. After incubation with the secondary antibody at room temperature for 1-2 hours, the plates were washed again and 1.5× concentration of Read Buffer T (MSD) was added to the wells.
The assays were read on a SECTOR Imager 6000 instrument (Meso Scale Discovery). Ratios of the signal from pSer473Akt and total Akt assays were used to correct for any variability and the percent inhibition of pSer473Akt from the total signal seen in cells treated with compound versus DMSO alone was calculated and used to determine EC50 values for each compound as shown in Tables 1 and 2 in the column labeled “A2780 pAKT473 EC50”.

PI3 K Alpha = PI3 K Alpha (Homo sapiens, UniProt P42336); experiment: PI3 kinase phosphorylation assays (homogenous solution phase, one step solid phase, ATP depletion/KinaseGlo); type: biochemical; details: read-out: PI3K Alpha IC50
Sequence of PI3 K Alpha (P42336 whole entry): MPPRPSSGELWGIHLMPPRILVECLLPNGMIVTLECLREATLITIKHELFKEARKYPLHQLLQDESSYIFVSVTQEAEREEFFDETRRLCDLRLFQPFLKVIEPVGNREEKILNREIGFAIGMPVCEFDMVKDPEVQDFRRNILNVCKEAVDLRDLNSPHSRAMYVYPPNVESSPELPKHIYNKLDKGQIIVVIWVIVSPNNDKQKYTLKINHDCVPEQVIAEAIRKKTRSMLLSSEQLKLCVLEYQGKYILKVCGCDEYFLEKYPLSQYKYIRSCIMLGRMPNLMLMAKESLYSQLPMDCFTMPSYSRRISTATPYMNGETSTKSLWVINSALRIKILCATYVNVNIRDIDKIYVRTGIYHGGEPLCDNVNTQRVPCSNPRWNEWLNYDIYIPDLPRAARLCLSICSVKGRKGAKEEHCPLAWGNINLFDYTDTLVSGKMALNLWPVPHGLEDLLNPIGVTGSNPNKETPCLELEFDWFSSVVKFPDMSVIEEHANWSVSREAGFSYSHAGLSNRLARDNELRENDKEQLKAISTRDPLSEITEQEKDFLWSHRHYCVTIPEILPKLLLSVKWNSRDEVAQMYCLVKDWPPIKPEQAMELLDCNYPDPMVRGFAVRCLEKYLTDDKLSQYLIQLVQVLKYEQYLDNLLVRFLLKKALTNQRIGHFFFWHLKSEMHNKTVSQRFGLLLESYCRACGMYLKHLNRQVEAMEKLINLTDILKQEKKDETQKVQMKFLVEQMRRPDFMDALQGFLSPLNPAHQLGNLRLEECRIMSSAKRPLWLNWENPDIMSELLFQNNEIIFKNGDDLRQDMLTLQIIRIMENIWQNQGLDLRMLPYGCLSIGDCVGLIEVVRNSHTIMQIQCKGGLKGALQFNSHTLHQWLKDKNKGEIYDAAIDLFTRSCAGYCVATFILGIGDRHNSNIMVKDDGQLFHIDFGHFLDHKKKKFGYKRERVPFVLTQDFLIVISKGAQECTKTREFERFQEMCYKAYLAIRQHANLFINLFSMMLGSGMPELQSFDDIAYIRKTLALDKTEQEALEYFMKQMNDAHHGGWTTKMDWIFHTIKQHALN
Sequence of PI3 K Alpha (P27986 whole entry partner): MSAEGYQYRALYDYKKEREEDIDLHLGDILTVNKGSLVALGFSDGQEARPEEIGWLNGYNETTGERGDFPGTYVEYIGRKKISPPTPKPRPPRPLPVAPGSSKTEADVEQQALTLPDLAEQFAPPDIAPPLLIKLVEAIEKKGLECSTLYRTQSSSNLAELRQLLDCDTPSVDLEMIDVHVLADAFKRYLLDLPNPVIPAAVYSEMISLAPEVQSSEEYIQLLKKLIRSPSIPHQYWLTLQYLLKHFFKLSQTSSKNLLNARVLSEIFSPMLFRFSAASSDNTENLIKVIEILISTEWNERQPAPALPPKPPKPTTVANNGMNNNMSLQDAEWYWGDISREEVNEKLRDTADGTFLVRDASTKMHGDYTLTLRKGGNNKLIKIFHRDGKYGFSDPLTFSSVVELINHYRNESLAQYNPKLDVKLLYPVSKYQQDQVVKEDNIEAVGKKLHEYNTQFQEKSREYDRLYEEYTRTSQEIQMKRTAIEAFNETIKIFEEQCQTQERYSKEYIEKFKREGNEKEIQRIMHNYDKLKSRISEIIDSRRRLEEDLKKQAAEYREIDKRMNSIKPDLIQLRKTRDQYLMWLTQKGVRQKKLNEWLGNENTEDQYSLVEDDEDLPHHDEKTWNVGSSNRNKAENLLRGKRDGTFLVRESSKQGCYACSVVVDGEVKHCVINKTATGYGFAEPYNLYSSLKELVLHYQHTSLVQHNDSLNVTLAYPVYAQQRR

[2] = A2780 cells, read-out: A2780 pAKT 473 EC50
[3] = 1 h, A2780 cells, one hour incubation, read-out: A2780 pAKT473 EC50

| SMILES | pEC50 (A2780 cells; A2780 cells) | pEC50 [1, 2] | pIC50 (PI3 K Alpha) | other results |
| --- | --- | --- | --- | --- |
| Nc1ccc(-c2ccc3nc(NC(=O)C(F)(F)F)cn3c2)cn1 [Example 1, N-[6-(6-Amino-pyridin-3-yl)-imidazo[1,2-a]pyridin-2-yl]-2,2,2-trifluoro-acetamide] | > 4.60 | > 5.00 | – | – |
| CC(=O)Nc1nc2ccc(-c3cnc(N)nc3)cc2s1 [Example 2-1, N-[6-(2-Amino-pyrimidin-5-yl)-benzothiazol-2-yl]-acetamide] | – | – | – | pEC50 (A2780 cells; A2780 cells, 72 hrs): > 5.00; pEC50 [1, 3]: > 6.00 |
| CC(=O)Nc1nc2ccc(-c3ccc(N)nc3)cc2s1 [Example 2-2, N-[6-(6-Amino-pyridin-3-yl)-benzothiazol-2-yl]-acetamide] | – | – | – | pEC50 (A2780 cells; A2780 cells, 72 hrs): > 5.00; pEC50 [1, 3]: > 6.00 |
| CC(=O)Nc1nc2ccc(-c3cnc(N)c(C)c3)cc2s1 [Example 2-4, N-[6-(6-Amino-5-methyl-pyridin-3-yl)-benzothiazol-2-yl]-acetamide] | – | – | – | pEC50 (A2780 cells; A2780 cells, 72 hrs): > 5.00; pEC50 [1, 3]: > 6.00 |
| Nc1ccc(-c2ccc3nc(NC(=O)CCCN4CCCCC4)sc3c2)cn1 [Example 2-5, N-[6-(6-Amino-pyridin-3-yl)-benzothiazol-2-yl]-4-piperidin-1-yl-butyramide] | – | – | – | pEC50 (A2780 cells; A2780 cells, 72 hrs): > 5.00; pEC50 [1, 3]: > 6.00 |
| CC(=O)Nc1nc2ccc(-c3cnc(N)c(C(F)(F)F)c3)cc2s1 [Example 2-8, N-[6-(6-Amino-5-trifluoromethyl-pyridin-3-yl)-benzothiazol-2-yl]-acetamide] | – | – | – | pEC50 (A2780 cells; A2780 cells, 72 hrs): > 6.00; pEC50 [1, 3]: > 6.00 |
| COc1cc(-c2ccc3nc(NC(C)=O)sc3c2)cnc1N [Example 2-9, N-[6-(6-Amino-5-methoxy-pyridin-3-yl)-benzothiazol-2-yl]-acetamide] | – | – | – | pEC50 (A2780 cells; A2780, 72 h): > 6.00; pEC50 ([1]; A2780, 1 h, read-out: A2780 pAKT473 EC50): > 6.00 |
| Nc1ncc(-c2ccc3nc(NC(=O)CCCN4CCOCC4)sc3c2)cc1C(F)(F)F [Example 2-12, N-[6-(6-Amino-5-trifluoromethyl-pyridin-3-yl)-benzothiazol-2-yl]-4-morpholin-4-yl-butyramide] | – | – | – | pEC50 (A2780 cells; A2780 cells, 72 hrs): > 5.00; pEC50 [1, 3]: > 6.00 |
| CC(=O)Nc1cn2nc(-c3cnc(N)c(C(F)(F)F)c3)ccc2n1 [Example 16, N-[6-(6-Amino-5-trifluoromethyl-pyridin-3-yl)-imidazo[1,2-b]pyridazin-2-yl]-acetamide] | – | > 6.00 | – | – |
| CN(C)C1CCN(C(=O)Nc2cn3cc(-c4cnc(N)c(C(F)(F)F)c4)ccc3n2)C1 (centres unmarked) [Example 248, N-(6-(6-amino-5-(trifluoromethyl)pyridin-3-yl)imidazo[1,2-a]pyridin-2-yl)-3-(dimethylamino) pyrrolidine-1-carboxamide] | > 5.00 | – | > 6.00 | – |
| CC(C)(C)OC(=O)N1CCCCC1CCC(=O)Nc1cn2nc(-c3cnc(N)c(C(F)(F)F)c3)ccc2n1 (centres unmarked) [Example 250, tert-butyl 2-(3-(6-(6-amino-5-(trifluoromethyl)pyridin-3-yl)imidazo[1,2-b]pyridazin-2-ylamino)-3-oxopropyl) piperidine-1-carboxylate] | > 5.00 | – | > 6.00 | – |
| CC(C)(C)OC(=O)N1CCC(OCC(=O)Nc2cn3cc(-c4cnc(N)c(C(F)(F)F)c4)ccc3n2)CC1 [Example 251, tert-butyl 4-(2-(6-(6-amino-5-(trifluoromethyl)pyridin-3-yl)imidazo[1,2-a]pyridin-2-ylamino)-2-oxoethoxy) piperidine-1-carboxylate] | > 5.00 | – | > 6.00 | – |
| C[C@@H](NC(=O)OC(C)(C)C)C(=O)Nc1cn2nc(-c3cnc(N)c(C(F)(F)F)c3)ccc2n1 [Example 253, (R)-tert-butyl 1-(6-(6-amino-5-(trifluoromethyl)pyridin-3-yl)imidazo[1,2-b]pyridazin-2-ylamino)-1-oxopropan-2-ylcarbamate] | > 5.00 | – | > 6.00 | – |
| CC(=O)Nc1nc2ccc(-c3cnc(N)c(C(F)(F)F)c3)cn2c1CCc1ccccc1 [Example 254, N-(6-(6-amino-5-(trifluoromethyl)pyridin-3-yl)-3-phenethyl-imidazo[1,2-a]pyridin-2-yl)acetamide] | > 5.00 | – | > 6.00 | – |
| Nc1ncc(-c2ccc3nc(NC(=O)C4CNC4)cn3c2)cc1C(F)(F)F [Example 256, N-(6-(6-amino-5-(trifluoromethyl)pyridin-3-yl)imidazo[1,2-a]pyridin-2-yl)azetidine-3-carboxamide] | > 5.00 | – | > 6.00 | – |
| COC(=O)C1CCN(C(=O)Nc2cn3cc(-c4cnc(N)c(C(F)(F)F)c4)ccc3n2)C1 (centres unmarked) [Example 257, methyl 1-(6-(6-amino-5-(trifluoromethyl)pyridin-3-yl)imidazo[1,2-a]pyridin-2-ylcarbamoyl) pyrrolidine-3-carboxylate] | > 5.00 | – | > 6.00 | – |

The next lines start with results.

| pEC50 (A2780 cells; A2780 cells) | pEC50 [1, 2] | pIC50 (PI3 K Alpha) | SMILES | other results |
| --- | --- | --- | --- | --- |
| – | > 6.00 | – | CC(=O)Nc1cn2cc(-c3cnc(N)c(C(F)(F)F)c3)ccc2n1 [Example 5, N-[6-(6-Amino-5-trifluoromethyl-pyridin-3-yl)-imidazo[1,2-a]pyridin-2-yl]-acetamide] | – |
| – | > 6.00 | – | COc1cc(-c2ccc3nc(NC(C)=O)cn3c2)cnc1N [Example 6, N-[6-(6-Amino-5-methoxy-pyridin-3-yl)-imidazo[1,2-a]pyridin-2-yl]-acetamide] | – |
| – | > 6.00 | – | COc1cc(-c2ccc3nc(NC(C)=O)cn3n2)cnc1N [Example 21, N-[6-(6-Amino-5-methoxy-pyridin-3-yl)-imidazo[1,2-b]pyridazin-2-yl]-acetamide] | – |
| – | > 6.00 | – | CC(=O)Nc1cn2cc(-c3cnc(N)c(OC(C)C)n3)ccc2n1 [Example 54, N-(6-(5-amino-6-isopropoxy-pyrazin-2-yl)imidazo[1,2-a]pyridin-2-yl)acetamide] | – |
| – | > 6.00 | – | CC(=O)Nc1cn2cc(-c3cnc(N)c(O[C@@H](C)C(F)(F)F)n3)ccc2n1 [Example 55, (S)-N-(6-(5-amino-6-(1,1,1-trifluoropropan-2-yloxy)pyrazin-2-yl)imidazo[1,2-a]pyridin-2-yl)acetamide] | – |
| – | > 6.00 | – | CC(=O)Nc1cn2cc(-c3cnc(N)c(OCC(F)(F)F)n3)ccc2n1 [Example 56, N-(6-(5-amino-6-(2,2,2-trifluoroethoxy)pyrazin-2-yl)imidazo[1,2-a]pyridin-2-yl)acetamide] | – |
| – | > 6.00 | – | COCCOc1nc(-c2ccc3nc(NC(C)=O)cn3c2)cnc1N [Example 61, N-(6-(5-amino-6-(2-methoxyethoxy)pyrazin-2-yl)imidazo[1,2-a]pyridin-2-yl)acetamide] | – |
| – | > 6.00 | – | CCOc1nc(-c2ccc3nc(NC(C)=O)cn3c2)cnc1N [Example 62, N-(6-(5-amino-6-ethoxypyrazin-2-yl)imidazo[1,2-a]pyridin-2-yl)acetamide] | – |
| – | > 6.00 | – | CC(=O)Nc1cn2cc(-c3cnc(N)c(O[C@H](C)C(F)(F)F)n3)ccc2n1 [Example 70, (R)-N-(6-(5-amino-6-(1,1,1-trifluoropropan-2-yloxy)pyrazin-2-a]pyridin-2-yl)acetamide] | – |
| – | > 6.00 | – | COc1nc(-c2ccc3nc(NC(C)=O)cn3c2)cnc1N [Example 101, N-(6-(5-amino-6-methoxypyrazin-2-yl)imidazo[1,2-a]pyridin-2-yl)acetamide] | – |
| – | > 6.00 | – | COCCOc1cc(-c2ccc3nc(NC(C)=O)cn3n2)cnc1N [Example 106, N-(6-(6-amino-5-(2-methoxyethoxy)pyridin-3-yl)imidazo[1,2-b]pyridazin-2-yl)acetamide] | – |
| – | > 6.00 | – | CCOc1cc(-c2ccc3nc(NC(C)=O)cn3c2)cnc1N [Example 111, N-(6-(6-amino-5-ethoxypyridin-3-yl)imidazo[1,2-a]pyridin-2-yl)acetamide] | – |
| – | > 6.00 | – | CCOc1cc(-c2ccc3nc(NC(C)=O)cn3n2)cnc1N [Example 119, N-(6-(6-amino-5-ethoxypyridin-3-yl)imidazo[1,2-b]pyridazin-2-yl)acetamide] | – |
| > 5.00 | – | > 6.00 | COCCOc1nc(-c2ccc3nc(NC(=O)C4CCN4C(C)=O)cn3c2)cnc1N (centres unmarked) [Example 249, 1-acetyl-N-(6-(5-amino-6-(2-methoxyethoxy)pyrazin-2-yl)imidazo[1,2-a]pyridin-2-yl)azetidine-2-carboxamide] | – |
| > 5.00 | – | > 6.00 | C/C=C/C(=O)Nc1cn2cc(-c3cnc(N)c(C(F)(F)F)c3)ccc2n1 [Example 252, (E)-N-(6-(6-amino-5-(trifluoromethyl)pyridin-3-yl)imidazo[1,2-a]pyridin-2-yl)but-2-enamide] | – |
| > 5.00 | – | > 6.00 | CCOC(=O)CC(=O)Nc1cn2cc(-c3cnc(N)c(C(F)(F)F)c3)ccc2n1 [Example 255, ethyl 3-(6-(6-amino-5-(trifluoromethyl)pyridin-3-yl)imidazo[1,2-a]pyridin-2-ylamino)-3-oxopropanoate] | – |
